# Results: US20180325889A1, “IMMUNOREGULATORY AGENTS” (FLEXUS BIOSCIENCES, INC., priority 2014, published 2018)
# pIC50: −log10 of the molar value.
# Molecular target: T1, human IDO1/HEK293 cells (Homo sapiens, UniProt P14902)
# T1 construct: expressed in transfected cells
# Assay: HEK Human IDO-1 cell-based IDO inhibition assay (kynurenine production)
# Settings: HEK293 cells stably expressing human IDO1, 20 hours incubation, absorbance at 490 nm; read-out: HEK Human IDO-1 Bio Activity (IDO IC50)
# How it was run: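 Stopped with 0.2% TCA, 50 °C 30 min; supernatant mixed with 0.2% Ehrlich reagent, 30 min RT, kynurenine read as absorbance at 490 nm.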
# T1 sequence (P14902 whole entry): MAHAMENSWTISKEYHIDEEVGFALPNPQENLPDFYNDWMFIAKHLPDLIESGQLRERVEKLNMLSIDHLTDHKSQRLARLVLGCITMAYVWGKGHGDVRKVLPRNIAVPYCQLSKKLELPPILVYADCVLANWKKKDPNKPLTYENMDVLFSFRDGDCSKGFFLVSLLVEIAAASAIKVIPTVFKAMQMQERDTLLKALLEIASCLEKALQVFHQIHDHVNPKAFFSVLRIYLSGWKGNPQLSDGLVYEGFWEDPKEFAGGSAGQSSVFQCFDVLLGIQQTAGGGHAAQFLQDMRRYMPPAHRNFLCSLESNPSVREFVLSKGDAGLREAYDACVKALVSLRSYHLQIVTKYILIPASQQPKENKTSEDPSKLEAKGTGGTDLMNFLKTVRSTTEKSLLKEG
row,pIC50,Structure (SMILES)
1,> 5.70,"O=C(NCC1(O)CCN(c2ccnc3ccc(F)cc23)CC1)c1ccc(Cl)cc1 [Example 81, 4-Chloro-N-((1-(6-fluoroquinolin-4-yl)-4-hydroxypiperidin-4-yl)methyl)benzamide]"
2,> 7.30,"O=C(Nc1ccc(F)cc1)N[C@H]1CC[C@H](c2ccnc3ccc(F)cc32)CC1 [Example 124, 1-(4-fluorophenyl)-3-(trans-4-(6-fluoroquinolin-4-yl)cyclohexyl)urea]"
3,> 7.30,"CCC(NC(=O)c1ccc(OC)nc1)[C@H]1CC[C@@H](c2ccnc3ccc(C(F)(F)F)cc32)CC1 (stereo partly drawn) [Example 256, 6-methoxy-N-(1-((1s, 4S)-4-(6-(trifluoromethyl)quinolin-4-yl)cyclohexyl)propyl)nicotinamide]"
4,> 6.60,O=C(NCC1CCN(c2ccnc3ccc(F)cc23)CC1)c1ccc(F)cc1 [Example 89]
5,> 7.30,"C[C@@H](NC(=O)c1ccc(-n2cccc2)cc1)[C@H]1CC[C@@H](c2ccnc3ccc(F)cc32)CC1 [Example 195, N-((R)-1-(cis-4-(6-fluoroquinolin-4-yl)cyclohexyl)ethyl)-4-(1H-pyrrol-1-yl)benzamide]"
6,> 7.30,"Cc1nccc(C2CCC(C(C)NC(=O)c3ccc(Cl)cc3)CC2)c1C (stereo not drawn) [Example 159a, 4-chloro-N-(1-(4-(2,3-dimcthylpyridin-4-yl)cyclohexyl)ethyl)benzamide]"
7,> 5.70,"O=C(Nc1ccc(Cl)cc1)[C@H]1CC[C@@H](c2ccnc3ccc(F)cc32)CC1 [Example 76, (cis)-N-(4-Chlorophenyl)-4-(6-fluoroquinolin-4-yl)cyclohexanecarboxamide]"
8,> 5.70,"CCC(NC(=O)c1ccc(Cl)cc1)[C@H]1CC[C@@H](Oc2ccnc3ccc(C(F)(F)F)cc23)CC1 (mixture of isomers) [Example 78, (±)-4-Chloro-N-(1-((cis)-4-((6-(trifluoromethyl)quinolin-4-yl)oxy)cyclohexyl)propyl)benzamide]"

# Tested on: not given
# Assay: not given
# Settings: not given
row,melting point [°C],Structure (SMILES)
1,91 to 94,"O=C(NCC1(O)CCN(c2ccnc3ccc(F)cc23)CC1)c1ccc(Cl)cc1 [Example 81, 4-Chloro-N-((1-(6-fluoroquinolin-4-yl)-4-hydroxypiperidin-4-yl)methyl)benzamide]"
